# Assay results from patent US20240425517A1, “NOVEL COMPOUND FOR DEGRADATION OF TARGET PROTEIN OR POLYPEPTIDE BY POLYUBIQUITINATION” (PRAZER THERAPEUTICS INC., priority 2021, published 2024).
# Target: T1, ubiquitin (Homo sapiens, UniProt P0CG47)
# T1 construct: mixed with 1 mg/mL of ubiquitin
# Assay: Direct binding to ubiquitin: in vitro ubiquitination and intact protein analysis (UPLC-Q/TOF or MALDI-TOF)
# Conditions: 10 μM, ubiquitin 1 mg/mL, E1, E2, E3 (ITCH/AIP4), ATP, 37° C., 4 hours
# Protocol: To confirm that the compounds represented by Formulae V to VIII of the present invention directly bind to ubiquitin, in vitro ubiquitination assay was performed, and then the compounds of Preparation Examples I′ to IV″′ (BRD4 degraders) bound to ubiquitin, a BRD4 inhibitor, and ubiquitin were detected using intact protein analysis. The intact protein analysis is a method capable of measuring a compound bound to a protein by mass spectrometry without protease pretreatment. Experiments were performed using ITCH/AIP4 proteins (manufacturer: R&D System), which are E3 ligases, in order to bind ubiquitin and BRD4 degraders in vitro.
# Specifically, 10 μM of each degrader was mixed with 1 mg/mL of ubiquitin, 10× buffer, 5 nM of E1, 100 nM of E2, 14 nM of E3, and 1 mM of ATP to react in a 37° C. incubator for 4 hours. To the reacted samples, acetonitrile and formic acid were added for UPLC-Q/TOF or MALDI-TOF analysis, resulting in the final concentrations of 50% acetonitrile and 0.1% formic acid, respectively. For UPLC-Q/TOF, a Micromass Q-TOF micro Synapt High-definition mass spectrometer equipped with ESI was used to perform the mass spectrometry. […] The experimental results were analyzed using TOF/TOF™ Series Explorer™ software version 4.0.
smiles,measurement,value
Cc1sc2c(c1C)C(c1ccc(Cl)cc1)=N[C@@H](CC(=O)OC(C)(C)C)c1nnc(C)n1-2 [JQ1],"molecular weight peak of ubiquitin bound to the compound (intact protein analysis, FIGS. 3A-3J)",not detected
